Experiment [1] concerns the target T1, Progesterone receptor (Homo sapiens) (UniProt P06401).
T1 sequence (whole entry): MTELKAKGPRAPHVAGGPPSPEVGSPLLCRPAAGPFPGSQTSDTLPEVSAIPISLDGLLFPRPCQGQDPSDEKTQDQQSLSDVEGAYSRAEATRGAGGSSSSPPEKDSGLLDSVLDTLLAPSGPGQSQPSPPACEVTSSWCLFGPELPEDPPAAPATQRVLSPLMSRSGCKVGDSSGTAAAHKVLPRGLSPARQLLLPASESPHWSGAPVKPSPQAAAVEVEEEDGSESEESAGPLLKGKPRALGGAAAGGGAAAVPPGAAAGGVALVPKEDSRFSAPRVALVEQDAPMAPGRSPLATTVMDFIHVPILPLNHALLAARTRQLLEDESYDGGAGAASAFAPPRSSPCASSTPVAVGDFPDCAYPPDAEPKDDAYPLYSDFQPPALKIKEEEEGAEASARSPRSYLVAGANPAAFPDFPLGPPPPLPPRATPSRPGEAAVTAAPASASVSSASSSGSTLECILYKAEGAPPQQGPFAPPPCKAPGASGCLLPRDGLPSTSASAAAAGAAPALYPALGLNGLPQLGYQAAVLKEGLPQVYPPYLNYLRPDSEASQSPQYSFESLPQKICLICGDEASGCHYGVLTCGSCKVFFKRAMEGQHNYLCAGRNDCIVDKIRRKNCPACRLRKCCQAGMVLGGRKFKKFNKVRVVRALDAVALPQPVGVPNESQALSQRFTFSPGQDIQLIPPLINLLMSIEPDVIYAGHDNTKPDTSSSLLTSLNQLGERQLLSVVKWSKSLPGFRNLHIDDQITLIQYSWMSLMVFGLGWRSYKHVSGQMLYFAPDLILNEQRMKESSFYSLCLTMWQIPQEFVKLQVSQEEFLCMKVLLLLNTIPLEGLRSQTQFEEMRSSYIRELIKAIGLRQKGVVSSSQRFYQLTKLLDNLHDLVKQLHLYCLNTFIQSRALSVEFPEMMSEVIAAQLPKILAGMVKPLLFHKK
The experiment is described as follows: Relative binding affinity for human progesterone receptor in MCF-7 cell cytosols compared to Org 2058. The experiment is classed as cell-based.

Experiment [2] can be described thus: Ratio of compound to that of glucocorticoid receptor binding and progesterone receptor binding was determined.

This passage reports Affinity and Ratio results from ChEMBL document CHEMBL1130518, “11,21-Bisphenyl-19-norpregnane derivatives are selective antiglucocorticoids” (Bioorg Med Chem Lett, 1997).

In experiment [1], `CN(C)c1ccc(C#C[C@]2(O)CCC3C4CCC5=CC(=O)CCC5=C4[C@@H](c4ccc(N(C)C)cc4)C[C@@]32C)cc1` (some centres undefined) gave an Affinity of 1.7%. The Ratio in experiment [2] was 49.

For `C[C@]12C[C@H](c3ccc4c(c3)OCO4)C3=C4CCC(=O)C=C4CCC3C1CC[C@@]2(O)C#Cc1ccc(S(C)(=O)=O)cc1` (some centres undefined), in experiment [1], the Affinity amounted to 0.4%. In addition, the Ratio in experiment [2] is 488.

`CN(C)c1ccc(/C=C/[C@]2(O)CCC3C4CCC5=CC(=O)CCC5=C4[C@@H](c4ccc(N(C)C)cc4)C[C@@]32C)cc1` (some centres undefined): in experiment [1], the Affinity was determined as 6.1%. Moreover, in experiment [2], the Ratio stood at 1.

Take `CC#C[C@]1(O)CC[C@H]2[C@@H]3CCC4=CC(=O)CCC4=C3[C@@H](c3ccc(N(C)C)cc3)C[C@@]21C`: the Affinity in experiment [1] amounted to 36%. Further, the Ratio in experiment [2] was found to be 5.4.

`C[C@]12C[C@H](c3ccc4c(c3)OCCO4)C3=C4CCC(=O)C=C4CCC3C1CC[C@@]2(O)C#Cc1ccc(N2CCCC2=O)cc1` (some centres undefined): the Affinity in experiment [1] came to 0.2%. Moreover, the Ratio in experiment [2] was found to be 490.

With `CN(C)c1ccc([C@H]2C[C@@]3(C)C(CC[C@@]3(O)C#Cc3ccc(S(C)(=O)=O)cc3)C3CCC4=CC(=O)CCC4=C32)cc1` (some centres undefined), in experiment [1], the Affinity worked out at 2%. Further, the Ratio in experiment [2] came to 44.

The molecule `CN(C)c1ccc([C@H]2C[C@@]3(C)C(CC[C@@]3(O)C#Cc3ccccc3)C3CCC4=CC(=O)CCC4=C32)cc1` (some centres undefined) returned an Affinity in experiment [1] of 16%. Moreover, the Ratio in experiment [2] was determined as 6.
